Measurements as given in US20260000676A1, “CHROMAN DERIVATIVES AS ESTROGEN RECEPTOR DEGRADERS” (THE REGENTS OF THE UNIVERSITY OF MICHIGAN, priority 2022, published 2026).
pIC50: −log10 of the molar value.

Columns and labels:
CRBN/DDB1 = CRBN/DDB1 (Homo sapiens (Human), UniProt Q96SW2); assay: HTRF binding assay to CRBN/DDB1; details: read-out: CRBN HTRF IC50
Experimental: The binding potency was determined using HTRF assay technology (Perkin Elmer). Compounds were serially diluted in DMSO and 0.2 μL volume was transferred to white 384-well plate.

ER = ER (Homo sapiens (Human), UniProt P03372); assay: In-cell western (ICW) ER degradation assay in MCF-7 cells; type: cell-based; details: MCF7, 16 hrs; for DC50: ER degradation; for Dmax: MCF7, maximal ER degradation; for MCF7 Dmax %: maximal ER degradation
Experimental: ERa degradative activity of compounds can be assessed in MCF-7 and T47D Cells. MCF-7 and T47D cell are seeded and are subsequently treated with the compounds at certain concentrations (e.g., 0.02 to 300 nM). DMSO can be used as vehicle control. Cells are fixed and are blocked with Intercept (PBS) Blocking Buffer (e.g., Li-COR, Odyssey Blocking Buffer), and are stained with ER (e.g., 1:500, Cell signaling) primary antibody for overnight at cold room. Secondary Antibody (e.g., IRDye 800CW Goat anti-Rabbit IgG) and CellTag 700 Stain are added in Intercept (PBS) Blocking Buffer. Finally, cell plate is placed in incubator to dry. Image and signal are captured on Odyssey® DLx Imaging System.
Day 3: After 16 hrs of compounds treatment, cells were fixed by 4% PFA and permeabilized with elution buffer (0.1% Triton X-100 in 1% PBS Solution). Subsequently, cells were blocked with Intercept (PBS) Blocking Buffer (Li-COR, Odyssey Blocking Buffer), and were stained with ER (1:500, Cell signaling) primary antibody for overnight at cold room.
Day 4: Remove the buffer, add IRDye 800CW Goat anti-Rabbit IgG Secondary Antibody (1:2000) and CellTag 700 Stain (1:500) in Intercept (PBS) Blocking Buffer. Finally, cell plate is placed in incubator to dry. Image and signal were captured on Odyssey® DLx Imaging System.

Chain of CRBN/DDB1 (Q96SW2 whole entry): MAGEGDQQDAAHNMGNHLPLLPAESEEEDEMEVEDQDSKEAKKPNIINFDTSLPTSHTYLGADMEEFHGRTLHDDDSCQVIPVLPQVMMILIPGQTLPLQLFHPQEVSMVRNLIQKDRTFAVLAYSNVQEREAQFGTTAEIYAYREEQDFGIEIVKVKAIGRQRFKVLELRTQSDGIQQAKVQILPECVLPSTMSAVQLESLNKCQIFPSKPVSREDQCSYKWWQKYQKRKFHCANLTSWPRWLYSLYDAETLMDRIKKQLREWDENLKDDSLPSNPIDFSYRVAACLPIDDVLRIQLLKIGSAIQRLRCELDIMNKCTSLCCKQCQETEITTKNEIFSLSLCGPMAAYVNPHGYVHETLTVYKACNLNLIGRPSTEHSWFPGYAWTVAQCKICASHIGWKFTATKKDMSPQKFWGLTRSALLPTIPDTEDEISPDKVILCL
Chain of CRBN/DDB1 (Q16531 whole entry partner): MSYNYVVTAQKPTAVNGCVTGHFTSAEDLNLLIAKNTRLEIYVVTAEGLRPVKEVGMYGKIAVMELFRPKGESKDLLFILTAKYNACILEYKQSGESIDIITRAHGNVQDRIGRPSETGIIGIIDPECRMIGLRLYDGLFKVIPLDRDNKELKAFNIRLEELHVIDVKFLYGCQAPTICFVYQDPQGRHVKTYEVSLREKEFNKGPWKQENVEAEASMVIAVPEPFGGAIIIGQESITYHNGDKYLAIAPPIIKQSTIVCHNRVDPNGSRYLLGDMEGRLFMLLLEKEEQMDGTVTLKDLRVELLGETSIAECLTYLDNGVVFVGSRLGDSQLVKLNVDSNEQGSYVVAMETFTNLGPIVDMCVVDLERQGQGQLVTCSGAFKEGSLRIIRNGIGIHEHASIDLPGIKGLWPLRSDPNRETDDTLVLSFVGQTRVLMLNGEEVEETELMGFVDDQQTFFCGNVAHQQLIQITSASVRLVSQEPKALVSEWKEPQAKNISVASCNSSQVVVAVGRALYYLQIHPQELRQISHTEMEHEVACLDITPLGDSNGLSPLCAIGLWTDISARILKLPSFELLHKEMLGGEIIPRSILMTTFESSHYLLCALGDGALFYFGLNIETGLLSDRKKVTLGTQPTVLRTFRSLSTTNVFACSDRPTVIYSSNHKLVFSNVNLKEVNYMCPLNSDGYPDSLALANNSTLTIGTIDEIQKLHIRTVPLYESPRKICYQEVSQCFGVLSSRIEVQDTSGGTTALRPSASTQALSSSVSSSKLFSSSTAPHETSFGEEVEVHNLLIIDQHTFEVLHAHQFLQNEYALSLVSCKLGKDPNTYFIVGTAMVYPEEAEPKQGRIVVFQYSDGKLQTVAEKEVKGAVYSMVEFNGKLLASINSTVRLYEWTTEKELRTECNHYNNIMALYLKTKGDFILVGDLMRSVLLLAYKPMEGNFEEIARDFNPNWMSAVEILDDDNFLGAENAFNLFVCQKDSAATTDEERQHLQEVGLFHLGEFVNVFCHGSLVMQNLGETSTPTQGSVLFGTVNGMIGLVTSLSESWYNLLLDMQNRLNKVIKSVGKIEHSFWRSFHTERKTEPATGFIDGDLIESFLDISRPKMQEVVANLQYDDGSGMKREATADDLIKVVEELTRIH
Chain of ER (P03372 whole entry): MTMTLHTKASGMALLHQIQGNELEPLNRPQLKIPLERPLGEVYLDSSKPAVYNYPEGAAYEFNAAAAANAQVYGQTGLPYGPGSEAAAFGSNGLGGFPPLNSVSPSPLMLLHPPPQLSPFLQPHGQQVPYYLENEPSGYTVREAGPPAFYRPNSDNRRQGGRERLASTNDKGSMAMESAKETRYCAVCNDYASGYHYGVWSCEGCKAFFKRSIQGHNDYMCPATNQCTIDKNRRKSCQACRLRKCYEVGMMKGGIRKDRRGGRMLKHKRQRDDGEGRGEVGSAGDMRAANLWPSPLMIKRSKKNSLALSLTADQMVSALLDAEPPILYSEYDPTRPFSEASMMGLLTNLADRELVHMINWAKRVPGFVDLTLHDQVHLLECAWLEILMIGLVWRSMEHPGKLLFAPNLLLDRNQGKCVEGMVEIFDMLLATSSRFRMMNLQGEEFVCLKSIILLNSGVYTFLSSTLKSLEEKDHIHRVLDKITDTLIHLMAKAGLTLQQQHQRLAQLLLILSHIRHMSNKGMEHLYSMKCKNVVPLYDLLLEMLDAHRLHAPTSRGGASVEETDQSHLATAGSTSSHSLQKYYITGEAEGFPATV

| Structure (SMILES) | pIC50 (CRBN/DDB1) | DC50 (ER) | Dmax (ER) | MCF7 Dmax % (ER) |
| --- | --- | --- | --- | --- |
| O=C1CCC(N2Cc3c(ccc4c3OC[C@H]3CN(CC5CCN(c6ccc([C@@H]7c8ccc(O)cc8OC[C@@H]7c7ccccc7)cc6F)CC5)CCN43)C2=O)C(=O)N1 (single isomer, unassigned) [Compound A9] | 6.30 to 7.30 | 1 to 10 nM |  |  |
| Cc1nn(C2CCC(=O)NC2=O)c2ccc(N3CCN(CC4CCN(c5ccc([C@@H]6c7ccc(O)cc7OC[C@@H]6c6ccccc6)cc5F)CC4)CC3)cc12 (single isomer, unassigned) [Compound A14] | 5.30 to 6.30 | 1 to 10 nM | 25 to 50% |  |
| Cc1nn(C2CCC(=O)NC2=O)c2ccc(N3CCN(CC4CC5(CCN(c6ccc([C@H]7c8ccc(O)cc8OC[C@H]7c7ccccc7)cc6)CC5)C4)CC3)cc12 (single isomer, unassigned) [Compound A17] | 6.30 to 7.30 | < 1 nM | 50 to 75% |  |
| O=C1CCC(N2Cc3cc4c(cc3C2=O)OC[C@@H]2CN(CC3CC5(CCN(c6ccc([C@H]7c8ccc(O)cc8OC[C@H]7c7ccccc7)cc6)CC5)C3)CCN42)C(=O)N1 (single isomer, unassigned) [Compound A27, 3-((S)-3-((7-(4-((3R,4S)-7-hydroxy-3-phenylchroman-4-yl)phenyl)-7-azaspiro[3.5]nonan-2-yl)methyl)-8-oxo-1,2,3,4,4a,5,8,10-octahydro-9H-pyrazino[1′,2′:4,5][1,4]oxazino[2,3-f]isoindol-9-yl)piperidine-2,6-dione] | 5.30 to 6.30 | 1 to 10 nM |  |  |
| COc1cccc([C@@H]2COc3cc(O)ccc3[C@@H]2c2ccc(N3CCC(CN4CCN5c6ccc7c(c6OC[C@H]5C4)CN(C4CCC(=O)NC4=O)C7=O)CC3)cc2)c1 (single isomer, unassigned) [Compound A34] | 6.30 to 7.30 | 1 to 10 nM | 25 to 50% |  |
| O=C1CCC(N2Cc3c(ccc4c3OC[C@H]3CN(CC5CCN(c6ncc([C@@H]7c8ccc(O)cc8OC[C@@H]7c7ccccc7)cn6)CC5)CCN43)C2=O)C(=O)N1 (single isomer, unassigned) [Compound A36] | 6.30 to 7.30 | 10 to 100 nM | 25 to 50% |  |
| O=C1CC[C@H](N2Cc3c(ccc4c3OC[C@H]3CN(CC5CC6(CCN(c7ccc([C@@H]8c9ccc(O)cc9OC[C@@H]8c8ccccc8)cc7)CC6)C5)CCN43)C2=O)C(=O)N1 (single isomer, unassigned) [Compound A37] | > 7.30 | 1 to 10 nM |  | C (“C”: 25%-50%) |
| O=C1CCC(N2C(=O)c3cc4c(cc3C2=O)CN(CC(=O)N2CCC3(CC2)CN(c2ccc([C@H]5c6ccc(O)cc6OC[C@H]5c5ccccc5)cc2)C3)C4)C(=O)N1 (single isomer, unassigned) [Compound A38] | 6.30 to 7.30 | 10 to 100 nM | 25 to 50% |  |
| O=C1CCC(N2C(=O)c3cc4c(cc3C2=O)CN(CC(=O)N2CC3(CCN(c5ccc([C@H]6c7ccc(O)cc7OC[C@H]6c6ccccc6)cc5)CC3)C2)C4)C(=O)N1 (single isomer, unassigned) [Compound A39] | 6.30 to 7.30 | > 100 nM | < 25% |  |
| O=C1CCC(N2Cc3cc4c(cc3C2=O)CN(C(=O)CN2CCC3(CC2)CCN(c2ccc([C@@H]5c6ccc(O)cc6OC[C@@H]5c5ccccc5)cc2)CC3)C4)C(=O)N1 (single isomer, unassigned) [Compound A42] | 6.30 to 7.30 | > 100 nM | < 25% |  |
| O=C1CCC(N2Cc3cc4c(cc3C2=O)CN(C(=O)CN2CC3(CCN(c5ccc([C@H]6c7ccc(O)cc7OC[C@H]6c6ccccc6)cc5)CC3)C2)C4)C(=O)N1 (single isomer, unassigned) [Compound A45] | 6.30 to 7.30 | > 100 nM |  | D (“D”; <25%) |
| COc1nc(C(=O)NC2CCC(=O)NC2=O)ccc1N1CCN(CC2CCN(c3ccc([C@H]4c5ccc(O)cc5OC[C@H]4c4ccccc4)cc3F)CC2)CC1 (single isomer, unassigned) [Compound A102] | 5.30 to 6.30 | < 1 nM | 50 to 75% |  |
